Results taken from PubChem BioAssay AID1259407 (Chemical Carcinogenesis Research Information System (CCRIS), 2018).
Calls of active or inactive are those of the source. How the calls were made is not given here.

Test system: CCRIS mutagenicity, Ames/micronucleus/aberration tests
Test: CCRIS mutagenicity studies

Measured: mutagenic call

Nc1ccc(-c2ccc(N)cc2)cc1
active: End Point: IN VITRO CHROMOSOMAL ABERRATIONS, Test System: CHINESE HAMSTER OVARY CELLS, Metabolic Activation: RAT, LIVER, S-9, AROCLOR 1254 active; positive | Test System: AMES SALMONELLA TYPHIMURIUM, Strain/Indicator: DJ400, Metabolic Activation: HUMAN, HEPATOMA CELLS, BENZO[A]ANTHRACENE, Method: PREINCUBATION active; positive | Test System: AMES SALMONELLA TYPHIMURIUM, Strain/Indicator: DJ400, Metabolic Activation: HUMAN, HEPATOMA CELLS, Method: PREINCUBATION active; positive | Test System: AMES SALMONELLA TYPHIMURIUM, Strain/Indicator: DJ400, Metabolic Activation: RAT, LIVER, S-9, AROCLOR 1254, Method: PREINCUBATION active; positive | Test System: AMES SALMONELLA TYPHIMURIUM, Strain/Indicator: DJ400, Metabolic Activation: RAT, LIVER, S-9, Method: PREINCUBATION active; positive | Test System: AMES SALMONELLA TYPHIMURIUM, Strain/Indicator: DJ460, Metabolic Activation: HUMAN, HEPATOMA CELLS, BENZO[A]ANTHRACENE, Method: PREINCUBATION active; positive | Test System: AMES SALMONELLA TYPHIMURIUM, Strain/Indicator: DJ460, Metabolic Activation: HUMAN, HEPATOMA CELLS, Method: PREINCUBATION active; positive | Test System: AMES SALMONELLA TYPHIMURIUM, Strain/Indicator: DJ460, Metabolic Activation: RAT, LIVER, S-9, AROCLOR 1254, Method: PREINCUBATION active; positive | Test System: AMES SALMONELLA TYPHIMURIUM, Strain/Indicator: DJ460, Metabolic Activation: RAT, LIVER, S-9, Method: PREINCUBATION active; positive | Test System: AMES SALMONELLA TYPHIMURIUM, Strain/Indicator: DJ460, Metabolic Activation: TOBACCO CELL-FREE EXTRACT, Method: PREINCUBATION active; positive | Test System: AMES SALMONELLA TYPHIMURIUM, Strain/Indicator: DJ460, Metabolic Activation: TOBACCO TX1 CELLS, Method: PREINCUBATION active; positive | Test System: AMES SALMONELLA TYPHIMURIUM, Strain/Indicator: MP208, Metabolic Activation: TOBACCO CELL-FREE TXIMX, Method: PREINCUBATION active; positive | Test System: AMES SALMONELLA TYPHIMURIUM, Strain/Indicator: MP219, Metabolic Activation: TOBACCO CELL-FREE TXIMX, Method: PREINCUBATION active; positive | Test System: AMES SALMONELLA TYPHIMURIUM, Strain/Indicator: SV50, Metabolic Activation: NONE, Method: PREINCUBATION (PRIVAL METHOD) active; positive | Test System: AMES SALMONELLA TYPHIMURIUM, Strain/Indicator: TA98(1,8-DNP6), Metabolic Activation: PLANT CELLS, Method: PREINCUBATION active; positive | Test System: AMES SALMONELLA TYPHIMURIUM, Strain/Indicator: TA98(NR), Metabolic Activation: TOBACCO CELL-FREE TXIMX, Method: PREINCUBATION active; positive | Test System: AMES SALMONELLA TYPHIMURIUM, Strain/Indicator: TA98, Metabolic Activation: HAMSTER, LIVER, S-9, Method: PREINCUBATION active; positive | Test System: AMES SALMONELLA TYPHIMURIUM, Strain/Indicator: TA98, Metabolic Activation: HAMSTER, LIVER, S-9, Method: PREINCUBATION (PRIVAL METHOD) active; positive | Test System: AMES SALMONELLA TYPHIMURIUM, Strain/Indicator: TA98, Metabolic Activation: HAMSTER, LIVER, S-9, Method: STANDARD PLATE active; positive | Test System: AMES SALMONELLA TYPHIMURIUM, Strain/Indicator: TA98, Metabolic Activation: HUMAN, HEPATOMA CELLS, BENZO[A]ANTHRACENE, Method: PREINCUBATION active; positive | Test System: AMES SALMONELLA TYPHIMURIUM, Strain/Indicator: TA98, Metabolic Activation: HUMAN, HEPATOMA CELLS, Method: PREINCUBATION active; positive | Test System: AMES SALMONELLA TYPHIMURIUM, Strain/Indicator: TA98, Metabolic Activation: MOUSE, LIVER, S-9, Method: STANDARD PLATE active; positive | Test System: AMES SALMONELLA TYPHIMURIUM, Strain/Indicator: TA98, Metabolic Activation: PLANT CELLS, Method: PREINCUBATION active; positive | Test System: AMES SALMONELLA TYPHIMURIUM, Strain/Indicator: TA98, Metabolic Activation: RAT LIVER S-9, AROCLOR 1254, Method: PREINCUBATION active; positive | Test System: AMES SALMONELLA TYPHIMURIUM, Strain/Indicator: TA98, Metabolic Activation: RAT, LIVER, S-9, AROCLOR 1254, Method: PREINCUBATION active; positive | Test System: AMES SALMONELLA TYPHIMURIUM, Strain/Indicator: TA98, Metabolic Activation: RAT, LIVER, S-9, AROCLOR 1254, Method: STANDARD PLATE active; positive | Test System: AMES SALMONELLA TYPHIMURIUM, Strain/Indicator: TA98, Metabolic Activation: RAT, LIVER, S-9, PHENOBARBITAL, Method: STANDARD PLATE active; positive | Test System: AMES SALMONELLA TYPHIMURIUM, Strain/Indicator: TA98, Metabolic Activation: RAT, LIVER, S-9, Method: PREINCUBATION active; positive | Test System: AMES SALMONELLA TYPHIMURIUM, Strain/Indicator: TA98, Metabolic Activation: S-9, Method: STANDARD PLATE active; positive | Test System: AMES SALMONELLA TYPHIMURIUM, Strain/Indicator: TA98, Metabolic Activation: TOBACCO CELL-FREE TXIMX, Method: PREINCUBATION active; positive | Test System: AMES SALMONELLA TYPHIMURIUM, Strain/Indicator: TA100, Metabolic Activation: HUMAN, LIVER, S-9, Method: STANDARD PLATE active; positive
inactive: End Point: IN VITRO CHROMOSOMAL ABERRATIONS, Test System: CHINESE HAMSTER OVARY CELLS, Metabolic Activation: NONE inactive; negative | Test System: AMES SALMONELLA TYPHIMURIUM, Strain/Indicator: DJ400, Metabolic Activation: TOBACCO TX1 CELLS, Method: PREINCUBATION inactive; negative | Test System: AMES SALMONELLA TYPHIMURIUM, Strain/Indicator: MP110, Metabolic Activation: TOBACCO TX1 CELLS, Method: PREINCUBATION inactive; negative | Test System: AMES SALMONELLA TYPHIMURIUM, Strain/Indicator: MP120, Metabolic Activation: TOBACCO TX1 CELLS, Method: PREINCUBATION inactive; negative | Test System: AMES SALMONELLA TYPHIMURIUM, Strain/Indicator: SV50, Metabolic Activation: HAMSTER, LIVER, S-9, Method: STANDARD PLATE inactive; negative | Test System: AMES SALMONELLA TYPHIMURIUM, Strain/Indicator: SV50, Metabolic Activation: RAT, LIVER, S-9, AROCLOR 1254, Method: STANDARD PLATE inactive; negative | Test System: AMES SALMONELLA TYPHIMURIUM, Strain/Indicator: TA98(1,8-DNP6), Metabolic Activation: NONE, Method: PREINCUBATION inactive; negative | Test System: AMES SALMONELLA TYPHIMURIUM, Strain/Indicator: TA98(1,8-DNP6), Metabolic Activation: NONE, Method: STANDARD PLATE inactive; negative | Test System: AMES SALMONELLA TYPHIMURIUM, Strain/Indicator: TA98(1,8-DNP6), Metabolic Activation: S-9, Method: STANDARD PLATE inactive; negative | Test System: AMES SALMONELLA TYPHIMURIUM, Strain/Indicator: TA98(1,8-DNP6), Metabolic Activation: TOBACCO CELL-FREE TXIMX, Method: PREINCUBATION inactive; negative | Test System: AMES SALMONELLA TYPHIMURIUM, Strain/Indicator: TA98, Metabolic Activation: NONE, Method: PREINCUBATION inactive; negative | Test System: AMES SALMONELLA TYPHIMURIUM, Strain/Indicator: TA98, Metabolic Activation: NONE, Method: STANDARD PLATE inactive; negative | Test System: AMES SALMONELLA TYPHIMURIUM, Strain/Indicator: TA98, Metabolic Activation: RAT, BLADDER, S-9, PCB, Method: FLUCTUATION TEST inactive; negative | Test System: AMES SALMONELLA TYPHIMURIUM, Strain/Indicator: TA100(NR), Metabolic Activation: TOBACCO CELL-FREE TXIMX, Method: PREINCUBATION inactive; negative | Test System: AMES SALMONELLA TYPHIMURIUM, Strain/Indicator: TA100(TN:OAT), Metabolic Activation: TOBACCO CELL-FREE TXIMX, Method: PREINCUBATION inactive; negative | Test System: AMES SALMONELLA TYPHIMURIUM, Strain/Indicator: TA100, Metabolic Activation: NONE, Method: PREINCUBATION inactive; negative | Test System: AMES SALMONELLA TYPHIMURIUM, Strain/Indicator: TA100, Metabolic Activation: NONE, Method: STANDARD PLATE inactive; negative | Test System: AMES SALMONELLA TYPHIMURIUM, Strain/Indicator: TA100, Metabolic Activation: RAT LIVER S-9, AROCLOR 1254, Method: PREINCUBATION inactive; negative
